Results from PubChem BioAssay AID1919013 (Molecular Pharmacology Branch, DTP, NCI, 2023).
Where “and” joins values, the source holds several entries; their conditions need not be identical. Equal values may be shown once. Values belong to the compound of their own block, whether it stands above or below them.

Test system: LG0703-F498-PDC complex spheroid growth
Test: Anticancer human tumor LG0703-F498-PDC patient-derived lung adenocarcinoma cell line growth inhibition [AhR]
Details: for viability, T/C: stronger effect = lower value
Outline: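 Agents were dosed in half-log steps down from roughly clinical Cmax, or from 10 microM where Cmax was unknown, alone and with AhR antagonists. Read-out: percent test/control growth of tumor spheroids containing HUVEC and MSC stromal cells.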

[1] = curve of first compound, second compound 0.1 µM
[2] = curve of first compound, second compound 0.316 µM
[3] = curve of first compound, second compound 1 µM
[4] = curve of first compound, second compound 3.16 µM
[5] = curve of first compound, second compound 10 µM
[6] = second compound 0.1 µM, first compound 0.0316 µM
[7] = second compound 0.1 µM, first compound 0.1 µM
[8] = second compound 0.1 µM, first compound 0.316 µM
[9] = second compound 0.1 µM, first compound 1 µM
[10] = second compound 0.1 µM, first compound 3.16 µM
[11] = second compound 0.1 µM, first compound 10 µM
[12] = second compound 0.316 µM, first compound 0.0316 µM
[13] = second compound 0.316 µM, first compound 0.1 µM
[14] = second compound 0.316 µM, first compound 0.316 µM
[15] = second compound 0.316 µM, first compound 1 µM
[16] = second compound 0.316 µM, first compound 3.16 µM
[17] = second compound 0.316 µM, first compound 10 µM
[18] = second compound 1 µM, first compound 0.0316 µM
[19] = second compound 1 µM, first compound 0.1 µM
[20] = second compound 1 µM, first compound 0.316 µM
[21] = second compound 1 µM, first compound 1 µM
[22] = second compound 1 µM, first compound 3.16 µM
[23] = second compound 1 µM, first compound 10 µM
[24] = second compound 3.16 µM, first compound 0.0316 µM
[25] = second compound 3.16 µM, first compound 0.1 µM
[26] = second compound 3.16 µM, first compound 0.316 µM
[27] = second compound 3.16 µM, first compound 1 µM
[28] = second compound 3.16 µM, first compound 3.16 µM
[29] = second compound 3.16 µM, first compound 10 µM
[30] = second compound 10 µM, first compound 0.0316 µM
[31] = second compound 10 µM, first compound 0.1 µM
[32] = second compound 10 µM, first compound 0.316 µM
[33] = second compound 10 µM, first compound 1 µM
[34] = second compound 10 µM, first compound 3.16 µM
[35] = second compound 10 µM, first compound 10 µM
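Also: luminescence taken as a proxy for viable cell amount.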
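For viability, T/C in this document: percent of DMSO vehicle control where 100% means growth equal to vehicle.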

IC50 (curve of compound): > 10 µM
Compound: CC1COCCN1c1cc(C2(S(C)(=N)=O)CC2)nc(-c2ccnc3[nH]ccc23)n1 (stereo not given)
viability, T/C (compound 0.0316 µM): 91% and 100% and 107%
viability, T/C (compound 0.1 µM): 108% and 96.2% and 104%
viability, T/C (compound 0.316 µM): 87.9% and 110% and 96.5%
viability, T/C (compound 1 µM): 97.9% and 98.4% and 97.6%
viability, T/C (compound 3.16 µM): 87.5% and 110% and 95.1%
viability, T/C (compound 10 µM): 65.4% and 71% and 64.8%

IC50 (compound alone, run of 06/14/2022): > 10 µM
Compound: Cc1ccccc1N=Nc1ccc(NC(=O)c2ccnn2C)c(C)c1
viability, T/C (compound 1 µM): 90.5% [middle of 20 runs]
viability, T/C (compound 3.16 µM): 85.7% [middle of 20 runs]

Further lines, the compound ahead of its results:

Compound: CCN(c1cc(-c2ccc(CN3CCOCC3)cc2)cc(C(=O)NCc2c(C)cc(C)[nH]c2=O)c1C)C1CCOCC1 + Cc1ccccc1N=Nc1ccc(NC(=O)c2ccnn2C)c(C)c1
IC50 [1]: > 3 µM
IC50 [2]: > 3 µM
IC50 [3]: > 3 µM
IC50 [4]: > 3 µM
IC50 [5]: > 3 µM
viability, T/C (second compound 0.1 µM, first compound 0.00949 µM): 97.8%
viability, T/C (second compound 0.1 µM, first compound 0.03 µM): 104%
viability, T/C (second compound 0.1 µM, first compound 0.0949 µM): 104%
viability, T/C (second compound 0.1 µM, first compound 0.3 µM): 107%
viability, T/C (second compound 0.1 µM, first compound 0.949 µM): 112%
viability, T/C (second compound 0.1 µM, first compound 3 µM): 118%
viability, T/C (second compound 0.316 µM, first compound 0.00949 µM): 94.3%
viability, T/C (second compound 0.316 µM, first compound 0.03 µM): 106%
viability, T/C (second compound 0.316 µM, first compound 0.0949 µM): 95%
viability, T/C (second compound 0.316 µM, first compound 0.3 µM): 100%
viability, T/C (second compound 0.316 µM, first compound 0.949 µM): 102%
viability, T/C (second compound 0.316 µM, first compound 3 µM): 106%
viability, T/C (second compound 1 µM, first compound 0.00949 µM): 97.7%
viability, T/C (second compound 1 µM, first compound 0.03 µM): 93.2%
viability, T/C (second compound 1 µM, first compound 0.0949 µM): 115%
viability, T/C (second compound 1 µM, first compound 0.3 µM): 92%
viability, T/C (second compound 1 µM, first compound 0.949 µM): 97.3%
viability, T/C (second compound 1 µM, first compound 3 µM): 99.8%
viability, T/C (second compound 3.16 µM, first compound 0.00949 µM): 95.9%
viability, T/C (second compound 3.16 µM, first compound 0.03 µM): 99.9%
viability, T/C (second compound 3.16 µM, first compound 0.0949 µM): 102%
viability, T/C (second compound 3.16 µM, first compound 0.3 µM): 94.2%
viability, T/C (second compound 3.16 µM, first compound 0.949 µM): 87.1%
viability, T/C (second compound 3.16 µM, first compound 3 µM): 101%
viability, T/C (second compound 10 µM, first compound 0.00949 µM): 81.9%
viability, T/C (second compound 10 µM, first compound 0.03 µM): 86.1%
viability, T/C (second compound 10 µM, first compound 0.0949 µM): 96.4%
viability, T/C (second compound 10 µM, first compound 0.3 µM): 86.1%
viability, T/C (second compound 10 µM, first compound 0.949 µM): 82.2%
viability, T/C (second compound 10 µM, first compound 3 µM): 98.5%

Compound: COc1ccc([C@@H](O)c2cc(-c3ncnc4cc(N5CCOCC5)ccc34)c(F)cc2Cl)nn1 + Cc1cncc(-c2nc(NCCc3c[nH]c4ccccc34)c3ncn(C(C)C)c3n2)c1
IC50 [1]: 5.42 µM
IC50 [2]: 4.81 µM
IC50 [3]: 4.59 µM
IC50 [4]: < 0.0316 µM
IC50 [5]: < 0.0316 µM
viability, T/C [6]: 87.8%
viability, T/C [7]: 107%
viability, T/C [8]: 98.1%
viability, T/C [9]: 82.2%
viability, T/C [10]: 65.3%
viability, T/C [11]: 34%
viability, T/C [12]: 105%
viability, T/C [13]: 97%
viability, T/C [14]: 97.8%
viability, T/C [15]: 82%
viability, T/C [16]: 63.5%
viability, T/C [17]: 27.5%
viability, T/C [18]: 95.9%
viability, T/C [19]: 104%
viability, T/C [20]: 103%
viability, T/C [21]: 92.4%
viability, T/C [22]: 60.4%
viability, T/C [23]: 28.7%
viability, T/C [24]: 36.7%
viability, T/C [25]: 42.4%
viability, T/C [26]: 34%
viability, T/C [27]: 27.4%
viability, T/C [28]: 17.8%
viability, T/C [29]: 13%
viability, T/C [30]: 1.26%
viability, T/C [31]: 1%
viability, T/C [32]: 1.42%
viability, T/C [33]: 1.17%
viability, T/C [34]: 0.52%
viability, T/C [35]: 1.67%

Compound: O=C(C=Cc1cccc(S(=O)(=O)Nc2ccccc2)c1)NO + Cc1ccccc1N=Nc1ccc(NC(=O)c2ccnn2C)c(C)c1
IC50 [1]: 0.828 µM
IC50 [2]: 0.809 µM
IC50 [3]: 0.921 µM
IC50 [4]: 0.901 µM
IC50 [5]: 1.28 µM
viability, T/C [6]: 106%
viability, T/C [7]: 123%
viability, T/C [8]: 84%
viability, T/C [9]: 43.9%
viability, T/C [10]: 12.4%
viability, T/C [11]: 2.33%
viability, T/C [12]: 110%
viability, T/C [13]: 99.7%
viability, T/C [14]: 81.6%
viability, T/C [15]: 42.9%
viability, T/C [16]: 13.5%
viability, T/C [17]: 2.43%
viability, T/C [18]: 122%
viability, T/C [19]: 111%
viability, T/C [20]: 83.9%
viability, T/C [21]: 50.4%
viability, T/C [22]: 12.6%
viability, T/C [23]: 2.97%
viability, T/C [24]: 97.2%
viability, T/C [25]: 113%
viability, T/C [26]: 86.5%
viability, T/C [27]: 44.8%
viability, T/C [28]: 17.8%
viability, T/C [29]: 2.8%
viability, T/C [30]: 103%
viability, T/C [31]: 101%
viability, T/C [32]: 74.7%
viability, T/C [33]: 60.3%
viability, T/C [34]: 25.9%
viability, T/C [35]: 6.34%
